Experimental data reported in patent US7320984B2, “Remedies or preventives for urinary frequency or urinary incontinence and morphinan derivatives having nitrogen-containing heterocyclic group” (Toray Industries, Inc., priority 2002, dated 2008).

System: rhythmic bladder contractions in rats
Experiment: Inhibitory effect against rhythmic bladder contractions in rats
Assay type: in vivo
Details: anesthetized female SD rats, intravenous
Outline: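 Urethane-anesthetized (1.0 g/kg i.p.) female SD rats; saline infused into bladder to induce rhythmic contractions, intravesical pressure monitored. Compound given i.v. at 1 ml/kg in saline, 10% or 20% aqueous DMSO, or 5% aqueous xylitol. Inhibitory time = period intravesical pressure stayed ≤50% of post-dose level (onset within 10 min); vehicles tested alone.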

Compound	Mean Inhibitory Time of Rhythmic Bladder Contractions (dose 0.1 mg/kg body weight)	other results
CCCN1CC[C@]23c4c5ccc(O)c4O[C@H]2[C@H](N2C(=O)c4cccc(N)c4C2=O)CC[C@@]3(O)[C@H]1C5 [Compound 101, N-(4,5α-epoxy-3,14-dihydroxy-17-propyl-morphinan-6β-yl)-3-amino-phthalimide]	–	Mean Inhibitory Time of Rhythmic Bladder Contractions (dose 0.3 mg/kg body weight): 15.1 min
COc1cccc2c1C(=O)N([C@@H]1CC[C@@]3(O)[C@H]4Cc5ccc(O)c6c5[C@@]3(CCN4CC3CC3)[C@H]1O6)C2=O [Compound 102, N-(17-cyclopropylmethyl-4,5α-epoxy-3,14-dihydroxy-morphinan-6β-yl)-3-methoxy-phthalimide]	15.6 min	–
O=c1c2ccccc2[nH]n1[C@@H]1CC[C@@]2(O)[C@H]3Cc4ccc(O)c5c4[C@@]2(CCN3CC2CC2)[C@H]1O5 [Compound 103, 2-(17-cyclopropylmethyl-4,5α-epoxy-3,14-dihydroxy-morphinan-6β-yl)-1,2-dihydro-indazol-3-one]	13.1 min	–
O=c1[nH]c2ccccc2c(=O)n1[C@@H]1CC[C@@]2(O)[C@H]3Cc4ccc(O)c5c4[C@@]2(CCN3CC2CC2)[C@H]1O5 [Compound 104, 3-(17-cyclopropylmethyl-4,5α-epoxy-3,14-dihydroxy-morphinan-6β-yl)-1H-quinazolin-2,4-dione]	13.5 min	–
O=c1c2ccccc2[nH]c(=S)n1[C@@H]1CC[C@@]2(O)[C@H]3Cc4ccc(O)c5c4[C@@]2(CCN3CC2CC2)[C@H]1O5 [Compound 105, 3-(17-cyclopropylmethyl-4,5α-epoxy-3,14-dihydroxy-morphinan-6β-yl)-2-thioxo-2,3-dihydro-1H-quinazolin-4-one]	7.3 min	–
O=C1Cc2ccccc2C(=O)N1[C@@H]1CC[C@@]2(O)[C@H]3Cc4ccc(O)c5c4[C@@]2(CCN3CC2CC2)[C@H]1O5 [Compound 106, 2-(17-cyclopropylmethyl-4,5α-epoxy-3,14-dihydroxy-morphinan-6β-yl)-4H-isoquinolin-1,3-dione]	–	Mean Inhibitory Time of Rhythmic Bladder Contractions (dose 0.01 mg/kg body weight): 12.9 min
O=S1(=O)c2ccccc2S(=O)(=O)N1[C@@H]1CC[C@@]2(O)[C@H]3Cc4ccc(O)c5c4[C@@]2(CCN3CC2CC2)[C@H]1O5 [Compound 107, 2-(17-cyclopropylmethyl-4,5α-epoxy-3,14-dihydroxy-morphinan-6β-yl)-benzo[1,3,2]dithiazol-1,1,3,3-tetraoxide]	–	Mean Inhibitory Time of Rhythmic Bladder Contractions (dose 0.01 mg/kg body weight): 14.1 min
O=C1c2ccccc2S(=O)(=O)N1[C@@H]1CC[C@@]2(O)[C@H]3Cc4ccc(O)c5c4[C@@]2(CCN3CC2CC2)[C@H]1O5 [Compound 108, N-(17-cyclopropylmethyl-4,5α-epoxy-3,14-dihydroxy-morphinan-6β-yl)-O-sulfonebenzimide]	–	Mean Inhibitory Time of Rhythmic Bladder Contractions (dose 0.01 mg/kg body weight): 25.6 min
C=CCN1CC[C@]23c4c5ccc(O)c4O[C@H]2[C@H](N2C(=O)c4ccccc4S2(=O)=O)CC[C@@]3(O)[C@H]1C5 [Compound 109, N-(17-allyl-4,5α-epoxy-3,14-dihydroxy-morphinan-6β-yl)-O-sulfonebenzimide]	18.1 min	–
O=S1(=O)c2ccccc2CN1[C@@H]1CC[C@@]2(O)[C@H]3Cc4ccc(O)c5c4[C@@]2(CCN3CC2CC2)[C@H]1O5 [Compound 110, N-(17-cyclopropylmethyl-4,5α-epoxy-3,14-dihydroxy-morphinan-6β-yl)-2,3-dihydro-benzo[d]isothiazol-1,1-dioxide]	12.6 min	–
Oc1ccc2c3c1O[C@H]1[C@H](N4CCCC4)CC[C@@]4(O)[C@@H](C2)N(CC2CC2)CC[C@]314 [Compound 111, 17-cyclopropylmethyl-4,5α-epoxy-6β-(pyrrolidin-1-yl)-morphinan-3,14-diol]	–	Mean Inhibitory Time of Rhythmic Bladder Contractions (dose 1.0 mg/kg body weight): 2.8 min
